Assay results reported in patent US20250041439A1, “ANTIBODY-DRUG CONJUGATES” (SPIREA LIMITED, priority 2021, published 2025).
Read-outs that look alike come from different tables or passages of the source. Non-standard residues stand in square brackets, D forms with d. Residues, ends and D or L forms follow the SMILES beside them. *: point of attachment. Dolaproine = CO[C@@H]([C@@H]1CCCN1)[C@@H](C)C(=O)O; Dil = CC[C@H](C)[C@H](NC)[C@@H](CC(=O)O)OC; X1 = C[C@@H](N*)[C@@H](O)c1ccccc1; NMeV = CN[C@H](C(=O)O)C(C)C

What was measured:
[1] = tested on: SK-BR-3 (Her2 High, human breast adenocarcinoma); assay: CellTiter-Glo luminescence viability assay with MMAE ADC; format: cell-based; conditions: SK-BR-3 cells, 96 hours, n = 3; read-out: IC50 (anti-proliferative effect)
Protocol: (§1) The CellTiter-Glo© luminescence viability assay was used to measure the inhibitory effect of the MMAE ADC prepared in Example 3 on cell growth.
(§2) Her2^High SK-BR-3 (human breast adenocarcinoma, ATCC® HTB-30, Manassas, VA, United States) were cultured in McCoy's 5A medium supplemented with 200 U/mL penicillin, 200 μg/mL streptomycin and 20% heat-inactivated fetal bovine serum. Her2^Low JIMT-1 (human breast carcinoma, ACC589, DSMZ, Braunschweig, Germany) were cultured in DMEM GlutaMax® medium supplemented with 200 U/mL penicillin, 200 μg/mL streptomycin and 10% heat-inactivated fetal bovine serum. Her2^Negative NCI-H520 (human lung squamous cell carcinoma, ATCC®-HTB-182) were cultured in RPMI medium supplemented with 200 U/mL penicillin, 200 μg/mL streptomycin and 10% heat-inactivated fetal bovine serum.
(§3) SK-BR-3, JIMT-1 and NCI-H520 cells were seeded in 96-well plates at a density of 5×10^3, 2×10^3 and 2.5×10^3 cells in 100 μL growth medium, respectively, and incubated for 24 hours at 37° C./5% CO2.
(§4) After 96 hours in the presence of ADCs or controls, viability was detected using the CellTiter-Glo® luminescence assay. Assay plates were equilibrated at room temperature for 20 minutes before addition of 100 μL CellTiter-Glo® reagent per well. The plates were then mixed for 3 minutes at 300 rpm to assist cell lysis and incubated for a further 20 minutes at room temperature to stabilise the luminescence signal. Luminescence was recorded using a SpectraMax i3x plate reader with a default integration time of 0.5 s/well.

[2] = tested on: NCI-H520 (Her2 Negative, human lung squamous cell carcinoma); assay: as above; format: cell-based; conditions: NCI-H520 cells, 96 hours, n = 3; read-out: IC50 (anti-proliferative effect)
Protocol: as §1, §2, §3, §4

[3] = tested on: JIMT-1 (Her2 Low, human breast carcinoma); assay: as above; format: cell-based; conditions: JIMT-1 cells, 96 hours, n = 3; read-out: IC50 (anti-proliferative effect)
Protocol: as §1, §2, §3, §4

[4] = tested on: NCI-N87 human gastric cancer CDX model; format: in vivo; conditions: 3 mg/kg IV single dose, PG-D42
Protocol: The objective of this study was to evaluate the in vivo anti-tumour efficacy of the MMAE ADC of Example 3 in the subcutaneous NCI-N87 human gastric cancer CDX model in female BALB/c Nude mice.
• Species: Mus musculus • Strain: BALB/c Nude • Age: 6-8 weeks • Sex: female • Body weight: 18-22 g
The NCI-N87 tumor cells (ATCC, Manassas, VA, cat #CRL-5822) were maintained in vitro as a monolayer culture in RPMI-1640 medium supplemented with 10% fetal bovine serum, 1% Antibiotic-Antimycotic, at 37° C. in an atmosphere of 5% CO2 in air. The tumour cells were routinely subcultured twice weekly by trypsin-EDTA treatment. The cells growing in an exponential growth phase were harvested and counted for tumour inoculation.
Each mouse for efficacy study was inoculated subcutaneously at the right flank with NCI-N87 tumour cells (10×10^6) in 0.2 mL of PBS supplemented with Matrigel (1:1) for tumour development. Treatments were started on day 6 after tumour inoculation when the average tumour size reached approximately 198 mm^3. […]
All the procedures related to animal handling, care and the treatment in the study were performed according to the guidelines approved by the Institutional Animal Care and Use Committee (IACUC) of the CRO following the guidance of the Association for Assessment and Accreditation of Laboratory Animal Care (AAALAC). At the time of routine monitoring, the animals were daily checked for any effects of tumour growth and treatments on normal behaviour such as mobility, food and water consumption (by looking only), body weight gain/loss (body weights were measured twice weekly), eye/hair matting and any other abnormal effect as stated in the protocol. Death and observed clinical signs were recorded on the basis of the numbers of animals within each subset.
The major endpoint was to see if the tumour growth could be delayed or mice could be cured. Tumour size was measured twice weekly in two dimensions using a calliper, and the volume was expressed in mm^3 using the formula: V=0.5a×b^2 where a and b are the long and short diameters of the tumour, respectively. […]

[5] = tested on: SK-BR-3 cells (HER2 High, human breast adenocarcinoma); assay: CellTiter-Glo luminescence viability assay with SN-38 ADCs; format: cell-based; conditions: n = 3, read-out: SK-BR-3 IC50 Mean (±St. Dev.)
Protocol: The plates were then mixed for 3 minutes at 300 rpm to assist cell lysis and incubated for a further 20 minutes at room temperature to stabilise the luminescence signal.

Work on `CC[C@H](C)[C@@H]([C@@H](CC(=O)N1CCC[C@H]1[C@H](OC)[C@@H](C)C(=O)N[C@H](C)[C@@H](O)c1ccccc1)OC)N(C)C(=O)[C@@H](NC(=O)[C@@H](NC)C(C)C)C(C)C` [MMAE, monomethyl auristatin E] (H-[NMeV]V[Dil][Dolaproine]-X1) yielded an IC50 [1] of 0.284 ± 0.138 nM, an IC50 [2] of 0.334 ± 0.114 nM and an IC50 [3] of 0.126 ± 0.053 nM.
In the case of T-DM1, the T/C [4] is reported as 29.37%, the TGI [4] is reported as 78.58% and the mean tumour volume [4] is reported as 574 mm^3.
`CCc1c2c(nc3ccc(O)cc13)-c1cc3c(c(=O)n1C2)COC(=O)[C@]3(O)CC` [SN-38] showed an IC50 ([5]; 9 h exposure (limited), then further 96 hours) of 5.78 ± 2.01 nM and an IC50 ([5]; 96 h exposure (continuous)) of 1.17 ± 0.09 nM.
